# Values quoted from earlier work in patent US20020127714A1, “Inhibitors of alternative alleles of genes encoding products that mediate cell response to environmental changes” (Variagenics, Inc., a Delaware corporation, priority 1998, published 2002).
# Where two headings read alike, the source gives them in different places.
# Assays:
# [1] = test system: serum asparagine; conditions: within hours of injection
# [2] = biological target: T1, MGMT 160 arginine allele (Homo sapiens, UniProt P16455, G160R); conditions: 160arg versus 160gly form of MGMT; also seen as reduced production of guanine from O6-benzyl[8-3H]guanine
# T1 sequence (P16455 1-207 G160R): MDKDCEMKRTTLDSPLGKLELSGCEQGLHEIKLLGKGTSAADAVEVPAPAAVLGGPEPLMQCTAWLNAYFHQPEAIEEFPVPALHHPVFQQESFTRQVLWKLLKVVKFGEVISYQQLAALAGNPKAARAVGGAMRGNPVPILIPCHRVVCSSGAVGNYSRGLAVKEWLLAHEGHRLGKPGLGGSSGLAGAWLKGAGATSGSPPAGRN
molecule,measurement,setting,value
"O=c1[nH]cc(F)c(=O)[nH]1 [5-FU, 5-fluorouracil]",half life of 5-FU,normals,0.13 to 0.333 h
same,half life of 5-FU,patients homozygous for mutant DPD alleles (DPD deficiency),> 2.5 h
L-asparaginase,blood levels of asparagine,[1],undetectable levels
"Nc1nc(OCc2ccccc2)c2nc[nH]c2n1 [O6 benzylguanine, O6-benzylguanine]","resistance of the 160 arginine allele to inactivation, measured as an increase in the ED50",[2],at least 20 fold
